From paper PMC7155212 (Journal of Enzyme Inhibition and Medicinal Chemistry, 2020) come the findings set out here.

A value given as a limit tells only on which side of the number the result lay.

In assay [1] the target is T1, MAO-B (Rattus norvegicus, UniProt P19643).
T1 construct: The crude enzyme was extracted from the liver of 200–250 g of Wistar rats; from tissue; host or cells: liver of Wistar rats (crude enzyme)
T1 sequence (P19643 1-520): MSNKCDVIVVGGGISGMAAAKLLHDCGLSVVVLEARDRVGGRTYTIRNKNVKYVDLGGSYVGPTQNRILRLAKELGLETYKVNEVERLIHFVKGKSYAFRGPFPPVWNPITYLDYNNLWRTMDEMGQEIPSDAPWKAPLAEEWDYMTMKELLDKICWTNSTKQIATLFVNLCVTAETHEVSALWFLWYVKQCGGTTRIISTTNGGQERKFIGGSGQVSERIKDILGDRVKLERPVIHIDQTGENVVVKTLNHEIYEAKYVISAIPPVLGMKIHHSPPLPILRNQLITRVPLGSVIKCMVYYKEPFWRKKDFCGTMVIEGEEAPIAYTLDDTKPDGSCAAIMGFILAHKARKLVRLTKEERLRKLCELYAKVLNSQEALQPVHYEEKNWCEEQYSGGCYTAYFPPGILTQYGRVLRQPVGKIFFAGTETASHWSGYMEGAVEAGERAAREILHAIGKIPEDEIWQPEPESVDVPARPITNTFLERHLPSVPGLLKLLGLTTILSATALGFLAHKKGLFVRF
Briefly: In vitro MAO inhibitory activity (Holt method, crude enzyme from rat liver). Type of assay: biochemical, Wistar rat. Particulars: rat liver crude enzyme, 4-(trifluoromethyl)benzylamine substrate, mean ± SD (n = 3); read-out: IC50 value MAO-B inhibitory activity. The procedure:
The MAO inhibitory activity of the 3-arylbenzofuranone compounds was determined by the method of Holt et al.[17] with slight modifications. The crude enzyme was extracted from the liver of 200–250 g of Wistar rats according to literature methods[18]^,[19]. The crude enzyme protein content was determined by the Bradford method using a Bradford Protein Assay Kit (Beyotime). The assay was performed in 0.2 M potassium phosphate buffer pH 7.6 on 96-well plates in 240 μl total volume. The chromogenic solution containing 1 mM vanillic acid, 0.5 mM 4-aminoantipyrine, and 4 U/ml horseradish peroxidase in 0.2 M potassium phosphate buffer pH 7.6 was mixed anew for each measurement. 40 μL of enzyme solution and 40 μL of sample solution were added to a 96-well plate. The solution was then incubated at 37 °C for 20 min. 120 μL of the 4-(trifluoromethyl) benzylamine solution and 40 μL of the chromogenic solution were added subsequently and incubated at 37 °C for 90 min. The absorbance was measured at 490 nm using a microplate reader, and the inhibition rate of MAO and the IC50 value of each sample were calculated according to the formula. The control group replaced the sample solution with PBS (0.2 M, pH = 7.6), the positive control replaced the sample with the positive drug, and the blank group replaced the substrate with PBS, and each group was measured three times in parallel to average. Monoamine oxidase inhibitory effect (%) = [(AC – AB) – (AS – ASB )]/(AC – AB)×100% where AC is the absorbance of control group; AB is the absorbance of blank group; AS is the absorbance of sample group; ASB is the absorbance of sample blank group.

Assay [2] is described as follows: In vitro antioxidant activity (DPPH radical scavenging). Particulars: DPPH free radical scavenging, 30 min at 37 °C, mean ± SD (n = 3). The procedure:
The assay provides an assessment of the antioxidant activity due to free radical scavenging by measuring hydrogen atom (or one electron) donating activity. DPPH is a purple stable free radical that is reduced to a yellow-coloured diphenylpicryl hydrazine by an antioxidant. The spectrophotometric assay was carried out as described by the literature method with a slight modification. 100 μL of a sample solution was added to 100 μL of DPPH solution. Following 30 min of incubation at 37 °C and protection from light, the absorbance at 517 nm was determined using a microplate reader. Each group was measured three times in parallel to average. IC50 values were calculated. The percentage of DPPH radical scavenging rate of the target compound is calculated as follows: DPPH free radical scavenging effect (%)=[A0 – (A1−A2)]/A0×100% where A0 is the absorbance of blank group; A1 is the absorbance of sample group; A2 is the absorbance of sample blank group.
In general terms: Loss of DPPH colour is used to gauge radical scavenging.

The target of assay [3] is AChE (Electrophorus electricus, UniProt O42275). Briefly: Kinetic characterisation of AChE inhibition (Lineweaver-Burk). Conditions: Lineweaver-Burk plot, Figure 1A. Type of assay: biochemical. The procedure: (§1) To obtain the mechanism of action of 13, reciprocal plots of 1/velocity versus 1/[substrate] were constructed at different concentrations of the substrate […] by using Ellman’s method. Compound 13 was added to the assay solution and preincubated with the enzyme at 37 °C for 5 min, followed by the addition of the substrate. Kinetic characterisation catalysed by enzyme was achieved spectrometrically at 412 nm. A parallel control experiment was carried out without compound 13 in the mixture. Lineweaver–Burk plot was made based on the reaction rate and substrate concentration to determine the type of inhibition of the ChE by the compound.
Chain of AChE (O42275 24-633): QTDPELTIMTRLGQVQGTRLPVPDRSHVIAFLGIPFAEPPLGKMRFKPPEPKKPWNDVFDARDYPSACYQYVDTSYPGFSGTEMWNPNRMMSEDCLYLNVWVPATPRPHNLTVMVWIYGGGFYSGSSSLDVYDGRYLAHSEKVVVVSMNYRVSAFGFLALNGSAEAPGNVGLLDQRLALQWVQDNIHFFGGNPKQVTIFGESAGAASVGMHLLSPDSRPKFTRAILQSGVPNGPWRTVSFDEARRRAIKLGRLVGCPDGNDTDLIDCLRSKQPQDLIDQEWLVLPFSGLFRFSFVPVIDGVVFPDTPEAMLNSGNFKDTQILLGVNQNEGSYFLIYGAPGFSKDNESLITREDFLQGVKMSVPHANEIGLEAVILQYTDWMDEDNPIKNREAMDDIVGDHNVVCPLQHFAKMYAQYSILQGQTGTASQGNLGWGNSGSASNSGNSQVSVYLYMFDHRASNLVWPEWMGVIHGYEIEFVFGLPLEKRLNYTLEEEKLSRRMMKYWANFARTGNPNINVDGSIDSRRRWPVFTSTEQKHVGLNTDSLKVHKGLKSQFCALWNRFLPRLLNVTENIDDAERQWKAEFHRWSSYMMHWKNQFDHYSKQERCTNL

In assay [4] the target is BuChE (Equus caballus, UniProt P81908). Nature of the assay: Kinetic characterisation of BuChE inhibition (Lineweaver-Burk). Type of assay: biochemical. Particulars: Lineweaver-Burk plot, Figure 1B. The procedure:
as §1

The target in assay [5] is AChE from electric eel (Electrophorus electricus, UniProt O42275). Briefly: biochemical. Type of assay: biochemical. Conditions: Ellman method, mean ± SD (n = 3), read-out: IC50 value AChE inhibitory activity. The procedure:
(§2) The anticholinesterase activity of the 3-arylbenzofuranone compounds was determined by the method of Ellman et al.[16] with slight modifications. […] Acetylthiocholine iodide and butyrylthiocholine iodide were used as substrates respectively. 5,5′-Dithiobis(2-nitrobenzoic acid) (DTNB) was used as the chromophoric reagent. To a 96-well plate, 120 µL of phosphate buffer solution (0.1 M, pH = 8.0, PBS), 20 µL of DTNB (3.3 mM in 0.1 M PBS, pH = 8.0) were added sequentially, 20 µL AChE solution (0.2 U/mL in 0.1 M PBS, pH = 8.0), 20 µL of different concentrations of the sample solution, shaken well, and incubated at 37 °C for 5 min. Then, 20 µL of substrate (5 mM in 0.1 M PBS, pH = 8.0) were added, shaken well, and incubated at 37 °C for 20 min. […] BChE inhibitory activity was assessed similarly using butyrylthiocholine iodide as the substrate. The sample solution was set to five concentration gradients and the experiment was repeated three times. […] Cholinesterase inhibitory effect (%)=[A0−(A1−A2)]/A0×100% where A0 is the absorbance of blank group; A1 is the absorbance of sample group; A2 is the absorbance of sample blank group.
(In general: In Ellman's method for cholinesterases, released thiocholine reacts with DTNB.)

The target in assay [6] is BChE from equine serum (Equus caballus, UniProt P81908). Briefly: biochemical. Type of assay: biochemical. Conditions: equine serum BChE, Ellman method, mean ± SD (n = 3); read-out: IC50 value BuChE inhibitory activity. The procedure: as §2
Chain of BChE from equine serum (P81908 whole entry): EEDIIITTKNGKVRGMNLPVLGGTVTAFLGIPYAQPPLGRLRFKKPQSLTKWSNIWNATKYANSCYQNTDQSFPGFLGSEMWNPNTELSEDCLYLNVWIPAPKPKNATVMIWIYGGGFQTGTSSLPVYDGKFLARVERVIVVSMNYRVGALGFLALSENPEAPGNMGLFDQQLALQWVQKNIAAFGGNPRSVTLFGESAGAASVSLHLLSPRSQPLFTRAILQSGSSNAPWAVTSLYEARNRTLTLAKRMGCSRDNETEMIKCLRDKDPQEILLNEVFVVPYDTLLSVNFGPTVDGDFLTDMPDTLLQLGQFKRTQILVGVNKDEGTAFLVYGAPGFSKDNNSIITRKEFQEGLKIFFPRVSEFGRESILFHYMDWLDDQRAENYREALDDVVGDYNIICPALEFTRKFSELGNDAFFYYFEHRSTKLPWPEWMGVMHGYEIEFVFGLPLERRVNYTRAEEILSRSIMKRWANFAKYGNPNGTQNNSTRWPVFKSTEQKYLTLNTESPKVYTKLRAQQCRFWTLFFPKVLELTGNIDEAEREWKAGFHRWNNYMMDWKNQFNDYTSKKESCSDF

Chain of AChE from electric eel (O42275 24-633): as the sequence (O42275 24-633) above
Chain of BuChE (P81908 whole entry): as the sequence (P81908 whole entry) above

Broadly, the IC50 is the midpoint of a concentration-inhibition curve. On to `COc1cc2c(cc1O)C(c1ccc(OC)c(OC)c1)C(=O)O2` (stereo not drawn) [Compound 13, 5-Hydroxy-6-methoxy-3–(3′,4′-dimethoxyphenyl)-benzofuranone], for which the figures for the IC50 in assay [1] and in assay [2] were 11.2 ± 0.72 µM and 5.33 ± 0.08 µM, respectively. Moreover, in assay [3], the “inhibition mode against AChE” value is on record as “reversible inhibition”. In assay [4], the “inhibition mode against BuChE” value was “reversible inhibition”.
For the compound `COc1ccc2c(c1O)OC(=O)C2c1cc(OC)c(OC)c(OC)c1` (stereo not drawn) [Compound 22, 6-Methoxy-7-hydroxy-3–(3′,4′,5′-trimethoxyphenyl)-benzofuranone], the IC50 in assay [5] was 2.03 ± 0.09 µM; in assay [6], above 200 µM; in assay [1], 30.3 ± 0.65 µM; in assay [2], 6.44 ± 0.12 µM.
The like results for `COc1cc2c(cc1O)C(c1cc(OC)c(OC)c(OC)c1)C(=O)O2` (stereo not drawn) [Compound 23, 5-Hydroxy-6-methoxy-3–(3′,4′,5′-trimethoxyphenyl)-benzofuranone] were, in that order, 26 ± 1.26 µM, above 200 µM, 43.9 ± 1.26 µM and 11.9 ± 0.16 µM.
